Assay results taken from patent US9247759B2, “Identification of human T2R receptors that respond to bitter compounds that elicit the bitter taste in compositions, and the use thereof in assays to identify compounds that inhibit (block) bitter taste in compositions and use thereof” (SENOMYX, INC., priority 2007, dated 2016).
pIC50: −log10 of the molar value. Read-outs that look alike come from different tables or passages of the source.

How the values were obtained:
hT2R3 = hT2R3 (Homo sapiens (Human), UniProt Q9NYW6); test: hT2R panel inhibition, transient HEK293 G16g44, agonist Chloroquine pH6.5 50 μM; format: cell-based; settings: HEK293, compound at 25 μM; receptor activated to EC80 with the corresponding agonist; read-out: screening result against bitter receptor 3
Sequence of hT2R3 (Q9NYW6 whole entry): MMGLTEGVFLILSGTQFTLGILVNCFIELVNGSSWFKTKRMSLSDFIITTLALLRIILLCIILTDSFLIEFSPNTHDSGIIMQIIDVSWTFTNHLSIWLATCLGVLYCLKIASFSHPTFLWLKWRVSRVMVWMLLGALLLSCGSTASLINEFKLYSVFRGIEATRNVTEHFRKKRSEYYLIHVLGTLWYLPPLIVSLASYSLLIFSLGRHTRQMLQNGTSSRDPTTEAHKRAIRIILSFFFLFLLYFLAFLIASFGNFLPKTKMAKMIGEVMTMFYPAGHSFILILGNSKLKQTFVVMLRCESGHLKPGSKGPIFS
Summary of the method: (§1)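 Transfect one hT2R per well set; stimulate with agonist at EC80; add test compound; record reduction of functional response as inhibition.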

hT2R5 = hT2R5 (Homo sapiens (Human), UniProt Q9NYW4); test: hT2R panel inhibition, transient HEK293 G16g44, agonist Picoline 10 mM; format: cell-based; settings: HEK293, compound at 25 μM; receptor activated to EC80 with the corresponding agonist; read-out: screening result against bitter receptor 5
Sequence of hT2R5 (Q9NYW4 whole entry): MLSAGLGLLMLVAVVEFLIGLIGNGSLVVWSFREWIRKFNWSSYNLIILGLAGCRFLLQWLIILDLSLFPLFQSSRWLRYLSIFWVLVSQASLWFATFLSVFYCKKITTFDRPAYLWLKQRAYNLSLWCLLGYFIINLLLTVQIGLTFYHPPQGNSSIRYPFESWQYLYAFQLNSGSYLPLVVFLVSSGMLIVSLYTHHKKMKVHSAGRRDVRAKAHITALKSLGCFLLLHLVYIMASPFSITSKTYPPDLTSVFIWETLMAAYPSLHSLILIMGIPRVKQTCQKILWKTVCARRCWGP
Summary of the method: as §1

hT2R9 = hT2R9 (Homo sapiens (Human), UniProt Q9NYW1); test: hT2R panel inhibition, transient HEK293 G16g44, agonist Ofloxacin 1 mM; format: cell-based; settings: HEK293, compound at 25 μM; receptor activated to EC80 with the corresponding agonist; read-out: screening result against bitter receptor 9
Sequence of hT2R9 (Q9NYW1 whole entry): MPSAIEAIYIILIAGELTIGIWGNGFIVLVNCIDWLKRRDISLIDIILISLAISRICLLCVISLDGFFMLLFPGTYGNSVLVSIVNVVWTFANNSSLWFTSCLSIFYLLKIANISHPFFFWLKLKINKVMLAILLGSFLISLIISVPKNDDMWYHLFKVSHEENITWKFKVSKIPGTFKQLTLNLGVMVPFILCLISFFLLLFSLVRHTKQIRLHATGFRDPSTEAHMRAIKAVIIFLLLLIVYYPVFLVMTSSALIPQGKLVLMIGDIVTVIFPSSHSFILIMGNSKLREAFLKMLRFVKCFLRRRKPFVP
Protocol: Specifically, in order to evaluate the inhibitory selectivity of the Compound C compound, this compound was tested against 22 human T2Rs which were deorphaned by Senomyx. These receptors and the bitter ligands that activate these human T2Rs are reported in earlier patent applications which are incorporated by reference herein. These 22 human T2Rs are hT2R1, 3, 4, 5, 7, 8, 9, 10, 13, 14, 16, 44, 51, 54, 55, 61, 63, 64, 65, 67, 71 and 75. The amino acid and nucleic acid sequences of all of these T2Rs may be found in these earlier patent applications. These human T2Rs were each individually transiently transfected into HEK293 cells that stably express the promiscuous G protein G16g44 and functional assays were effected using these receptors as disclosed in these same patent applications. […] The ligands were used at EC80 concentration levels. The list of bitter ligands utilized and the tested ligand concentrations are contained in Table 5 of this example.
Relating to the foregoing, FIG. 5 contains experimental results wherein Compound C was tested with different agonist compounds. The inhibition activity is represented by the reduction of receptor activity in the presence of Compound C. […] These 13 hT2Rs are hT2R3, 7, 10, 14, 16, 44, 51, 55, 61, 63, 64, 65, and 71.

hT2R61 = hT2R61 (Homo sapiens (Human), UniProt P59537); test: hT2R panel inhibition, transient HEK293 G16g44, agonist Aristolochic Acid 25 nM; format: cell-based; settings: HEK293, compound at 25 μM; receptor activated to EC80 with the corresponding agonist; read-out: screening result against bitter receptor 61
Sequence of hT2R61 (P59537 whole entry): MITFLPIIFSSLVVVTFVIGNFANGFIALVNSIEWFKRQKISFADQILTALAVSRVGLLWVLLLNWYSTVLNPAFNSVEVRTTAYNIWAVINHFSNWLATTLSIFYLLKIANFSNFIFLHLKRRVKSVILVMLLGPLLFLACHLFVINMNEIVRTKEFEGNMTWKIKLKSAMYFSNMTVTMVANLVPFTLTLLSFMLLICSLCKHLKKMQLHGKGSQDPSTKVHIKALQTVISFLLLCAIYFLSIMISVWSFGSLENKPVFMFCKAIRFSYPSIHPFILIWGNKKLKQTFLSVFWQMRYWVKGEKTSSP
Summary of the method: as §1

hT2R63 = test: hT2R panel inhibition, transient HEK293 G16g44, agonist Caffeine 1 mM or Andrographolide 100 μM; format: cell-based, human; settings: compound at 25 μM; receptor activated to EC80 with the corresponding agonist
Summary of the method: as §1

hT2R67 = test: hT2R panel inhibition, transient HEK293 G16g44, agonist Andrographolide 5 μM; format: cell-based, human; settings: compound at 25 μM; receptor activated to EC80 with the corresponding agonist
Summary of the method: as §1

hT2R71 = hT2R71 (Homo sapiens (Human), UniProt P59536); test: hT2R panel inhibition, transient HEK293 G16g44, agonist Picric Acid 10 μM; format: cell-based; settings: HEK293, compound at 25 μM; receptor activated to EC80 with the corresponding agonist; read-out: screening result against bitter receptor 71
Sequence of hT2R71 (P59536 whole entry): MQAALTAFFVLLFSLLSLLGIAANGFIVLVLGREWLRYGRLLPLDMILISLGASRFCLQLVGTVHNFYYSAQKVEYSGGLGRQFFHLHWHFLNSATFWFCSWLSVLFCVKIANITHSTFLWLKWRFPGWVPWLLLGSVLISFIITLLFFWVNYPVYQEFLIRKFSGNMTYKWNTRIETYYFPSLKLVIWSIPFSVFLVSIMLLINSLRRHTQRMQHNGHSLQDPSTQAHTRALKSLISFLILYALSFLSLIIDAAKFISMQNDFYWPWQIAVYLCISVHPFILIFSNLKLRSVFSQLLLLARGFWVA
Summary of the method: as §1

hT2R10 = hT2R10 (Homo sapiens (Human), UniProt Q9NYW0); test: hT2R panel inhibition, transient HEK293 G16g44, agonist Strychnine 50 μM; format: cell-based; settings: HEK293, read-out: screening result against bitter receptor 10, compound at 25 μM; receptor activated to EC80 with the corresponding agonist
Sequence of hT2R10 (Q9NYW0 whole entry): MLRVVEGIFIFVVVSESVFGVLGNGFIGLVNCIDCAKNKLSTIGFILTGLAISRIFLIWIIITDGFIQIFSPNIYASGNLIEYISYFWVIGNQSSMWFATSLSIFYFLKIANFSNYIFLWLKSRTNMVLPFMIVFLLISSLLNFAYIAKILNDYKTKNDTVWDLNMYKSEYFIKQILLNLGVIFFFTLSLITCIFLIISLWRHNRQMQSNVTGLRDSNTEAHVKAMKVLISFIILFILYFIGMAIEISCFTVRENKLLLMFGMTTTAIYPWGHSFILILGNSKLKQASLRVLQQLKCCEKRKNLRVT

hT2R14 [1] = molecular target: T1, hT2R14 (Homo sapiens (Human), UniProt Q9NYV8); test: hT2R panel inhibition, transient HEK293 G16g44, agonist Aristolochic Acid 2 μM; format: cell-based; settings: HEK293, compound at 25 μM; receptor activated to EC80 with the corresponding agonist; read-out: screening result against bitter receptor 14
T1 sequence (Q9NYV8 whole entry): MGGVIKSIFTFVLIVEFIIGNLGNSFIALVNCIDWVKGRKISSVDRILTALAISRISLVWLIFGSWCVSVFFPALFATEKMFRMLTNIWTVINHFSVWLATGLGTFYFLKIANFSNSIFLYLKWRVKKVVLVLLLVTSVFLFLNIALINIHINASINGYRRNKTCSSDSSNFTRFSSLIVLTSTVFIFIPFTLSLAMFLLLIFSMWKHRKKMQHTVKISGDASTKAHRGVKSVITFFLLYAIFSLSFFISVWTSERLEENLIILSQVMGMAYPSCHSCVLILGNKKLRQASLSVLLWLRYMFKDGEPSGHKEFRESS
Summary of the method: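 Each hT2R was transiently transfected into HEK293 cells stably expressing G16g44 and assayed functionally for inhibition of agonist response. Agonists were applied at EC80: andrographolide at 0.5 mM for hT2R8 and aristolochic acid at 2 μM for hT2R14.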

hT2R16 = hT2R16 (Homo sapiens (Human), UniProt Q9NYV7); test: hT2R panel inhibition, transient HEK293 G16g44, agonist Salicin 1 mM; format: cell-based; settings: HEK293, compound at 25 μM; receptor activated to EC80 with the corresponding agonist; read-out: screening result against bitter receptor 16
Sequence of hT2R16 (Q9NYV7 whole entry): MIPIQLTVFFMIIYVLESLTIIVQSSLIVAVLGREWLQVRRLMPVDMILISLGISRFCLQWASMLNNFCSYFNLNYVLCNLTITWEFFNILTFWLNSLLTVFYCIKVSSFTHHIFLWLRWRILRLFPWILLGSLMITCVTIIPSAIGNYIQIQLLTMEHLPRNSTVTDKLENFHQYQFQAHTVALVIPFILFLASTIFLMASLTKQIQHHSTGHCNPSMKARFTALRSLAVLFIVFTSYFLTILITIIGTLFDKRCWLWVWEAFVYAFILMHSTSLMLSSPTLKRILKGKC
Summary of the method: as §1

hT2R44 = test: hT2R panel inhibition, transient HEK293 G16g44, agonist Denatonium 0.5 μM; format: cell-based, human; settings: compound at 25 μM; receptor activated to EC80 with the corresponding agonist
Summary of the method: as §1

hT2R51 = hT2R51 (Homo sapiens (Human), UniProt P59533); test: hT2R panel inhibition, transient HEK293 G16g44, agonist Prop 2.5 μM; format: cell-based; settings: HEK293, compound at 25 μM; receptor activated to EC80 with the corresponding agonist; read-out: screening result against bitter receptor 51
Sequence of hT2R51 (P59533 whole entry): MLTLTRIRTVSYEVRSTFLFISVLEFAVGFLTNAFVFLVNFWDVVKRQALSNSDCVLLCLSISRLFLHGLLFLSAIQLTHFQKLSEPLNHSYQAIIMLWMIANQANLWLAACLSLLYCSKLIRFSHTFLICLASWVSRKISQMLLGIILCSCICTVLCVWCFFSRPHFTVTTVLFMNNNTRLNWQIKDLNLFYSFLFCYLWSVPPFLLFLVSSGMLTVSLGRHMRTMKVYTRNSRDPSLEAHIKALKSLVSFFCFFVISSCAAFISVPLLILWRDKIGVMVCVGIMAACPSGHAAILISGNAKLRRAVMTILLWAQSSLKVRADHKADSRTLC
Summary of the method: as §1

hT2R54 = test: hT2R panel inhibition, transient HEK293 G16g44, agonist Ranitidine 5 mM; format: cell-based, human; settings: compound at 25 μM; receptor activated to EC80 with the corresponding agonist
Summary of the method: as §1

hT2R55 = test: hT2R panel inhibition, transient HEK293 G16g44, agonist Cinchonine 150 μM; format: cell-based, human; settings: compound at 25 μM; receptor activated to EC80 with the corresponding agonist
Summary of the method: as §1

hT2R64 = hT2R64 (Homo sapiens (Human), UniProt P59538); test: hT2R panel inhibition, transient HEK293 G16g44, agonist Aristolochic Acid 1 μM; format: cell-based; settings: HEK293, compound at 25 μM; receptor activated to EC80 with the corresponding agonist; read-out: screening result against bitter receptor 64
Sequence of hT2R64 (P59538 whole entry): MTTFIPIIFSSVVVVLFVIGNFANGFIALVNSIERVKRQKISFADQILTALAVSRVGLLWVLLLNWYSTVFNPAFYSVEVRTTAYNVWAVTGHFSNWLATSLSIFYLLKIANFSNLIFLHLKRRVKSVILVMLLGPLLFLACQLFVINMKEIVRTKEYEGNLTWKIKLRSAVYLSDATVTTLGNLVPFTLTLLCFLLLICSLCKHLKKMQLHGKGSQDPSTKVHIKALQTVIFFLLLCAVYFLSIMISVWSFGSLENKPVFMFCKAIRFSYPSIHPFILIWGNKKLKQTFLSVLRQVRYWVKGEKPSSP
Summary of the method: as §1

hT2R65 = test: hT2R panel inhibition, transient HEK293 G16g44, agonist Oleuropein 1 mM; format: cell-based, human; settings: compound at 25 μM; receptor activated to EC80 with the corresponding agonist
Summary of the method: as §1

hT2R75 = hT2R75 (Homo sapiens (Human), UniProt P59540); test: hT2R panel inhibition, transient HEK293 G16g44, agonist Strychnine 1 μM; format: cell-based; settings: HEK293, read-out: screening result against bitter receptor 75, compound at 25 μM; receptor activated to EC80 with the corresponding agonist
Sequence of hT2R75 (P59540 whole entry): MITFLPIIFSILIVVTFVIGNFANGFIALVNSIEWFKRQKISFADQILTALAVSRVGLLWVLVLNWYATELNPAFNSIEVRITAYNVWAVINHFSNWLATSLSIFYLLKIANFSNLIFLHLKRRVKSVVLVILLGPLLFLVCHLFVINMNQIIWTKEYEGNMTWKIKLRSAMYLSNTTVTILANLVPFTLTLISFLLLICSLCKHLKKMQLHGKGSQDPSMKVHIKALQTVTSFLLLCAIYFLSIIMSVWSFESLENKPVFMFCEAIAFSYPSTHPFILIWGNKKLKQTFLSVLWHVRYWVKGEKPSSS

hT2R14 [2] = molecular target: T1, hT2R14; test: hT2R14 antagonist high-throughput FLIPR assay, stable cell line with G16g44, agonist aristolochic acid; format: cell-based
Summary of the method: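 HEK293 cells stably expressing hT2R14 with chimeric G16g44 were stimulated with aristolochic acid (3 μM), giving 70-80% of maximal receptor activity. Test compounds were added together with the agonist, and antagonism was read as fluorescent calcium signal on FLIPR.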

hT2R7 = hT2R7 (Homo sapiens (Human), UniProt Q9NYW3); test: hT2R panel inhibition, transient HEK293 G16g44, agonist Chloroquine pH6.5 10 mM; format: cell-based; settings: HEK293, compound at 25 μM; receptor activated to EC80 with the corresponding agonist; read-out: screening result against bitter receptor 7
Sequence of hT2R7 (Q9NYW3 whole entry): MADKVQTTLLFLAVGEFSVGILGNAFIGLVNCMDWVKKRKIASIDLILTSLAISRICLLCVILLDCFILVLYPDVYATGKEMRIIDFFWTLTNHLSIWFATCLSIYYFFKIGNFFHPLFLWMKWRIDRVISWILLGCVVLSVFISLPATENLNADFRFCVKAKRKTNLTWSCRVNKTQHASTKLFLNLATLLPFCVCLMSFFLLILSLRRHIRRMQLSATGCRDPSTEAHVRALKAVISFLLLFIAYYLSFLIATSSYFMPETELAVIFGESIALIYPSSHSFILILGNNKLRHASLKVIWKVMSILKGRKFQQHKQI
Summary of the method: as §1

hT2R4 = hT2R4 (Homo sapiens (Human), UniProt Q9NYW5); test: hT2R panel inhibition, transient HEK293 G16g44, agonist Chloroquine pH6.5 5 mM; format: cell-based; settings: HEK293, compound at 25 μM; receptor activated to EC80 with the corresponding agonist; class symbols; read-out: screening result against bitter receptor 4
Sequence of hT2R4 (Q9NYW5 whole entry): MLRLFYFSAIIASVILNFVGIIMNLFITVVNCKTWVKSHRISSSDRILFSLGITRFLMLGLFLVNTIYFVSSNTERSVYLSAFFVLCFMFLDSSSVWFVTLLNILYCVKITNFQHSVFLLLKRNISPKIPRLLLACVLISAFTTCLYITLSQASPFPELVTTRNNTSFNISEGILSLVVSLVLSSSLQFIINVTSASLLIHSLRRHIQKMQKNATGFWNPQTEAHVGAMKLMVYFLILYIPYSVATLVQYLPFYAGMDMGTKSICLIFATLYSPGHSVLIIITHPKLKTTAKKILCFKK
Summary of the method: as §1

[3] = read-out: IC50 on hT2R14 bitter receptor

Row | SMILES | inhibition at 25 µM (hT2R3) [%] | inhibition at 25 µM (hT2R5) [%] | inhibition at 25 µM (hT2R9) [%] | inhibition at 25 µM (hT2R61) [%] | screening result against bitter receptor 63 (hT2R63) | screening result against bitter receptor 67 (hT2R67) | inhibition at 25 µM (hT2R71) [%] | inhibition at 25 µM (hT2R10) [%] | inhibition at 25 µM (hT2R14 [1]) [%] | inhibition at 25 µM (hT2R16) [%] | screening result against bitter receptor 44 (hT2R44) | inhibition at 25 µM (hT2R51) [%] | screening result against bitter receptor 54 (hT2R54) | screening result against bitter receptor 55 (hT2R55) | inhibition at 25 µM (hT2R64) [%] | screening result against bitter receptor 65 (hT2R65) | inhibition at 25 µM (hT2R7) [%] | other results
1 | O=C(O)c1ccc(S(=O)(=O)N(Cc2ccccc2)Cc2cccc(C(=O)O)c2)cc1 [Example 5-76, 3-((N-benzyl-4-carboxyphenylsulfonamido)methyl)benzoic acid] | 20 to 40 | 20 to 40 | 20 to 40 | 40 to 60 | ++ (40% to 60% inhibition = ++) | + (20% to 40% inhibition = +) | 20 to 40 | – | – | – | – | – | – | – | – | – | – | –
2 | O=C(O)c1ccc(S(=O)(=O)N(Cc2ccccc2)Cc2ccccc2F)cc1 [Example 5-72, 4-(N-benzyl-N-(2-fluorobenzyl)sulfamoyl)benzoic acid] | 20 to 40 | 40 to 60 | 20 to 40 | 60 to 80 | ++++ (80% or greater inhibition = ++++) | + (20% to 40% inhibition = +) | 20 to 40 | 20 to 40 | > 80 | 20 to 40 | + (20% to 40% inhibition = +) | 20 to 40 | + (20% to 40% inhibition = +) | ++ (40% to 60% inhibition = ++) | 20 to 40 | + (20% to 40% inhibition = +) | – | inhibition at 25 µM (hT2R75): 40 to 60%
3 | COc1ccc(CN(Cc2ccccc2F)S(=O)(=O)c2ccc(C(=O)O)cc2)cc1 [Example 5-31, 4-(N-(2-fluorobenzyl)-N-(4-methoxybenzyl)sulfamoyl)benzoic acid] | 20 to 40 | – | 20 to 40 | – | – | – | – | – | – | – | + (20% to 40% inhibition = +) | – | – | – | – | – | – | –
4 | COc1cc(OC)c(CN(Cc2ccccc2)S(=O)(=O)c2ccc(C(=O)O)cc2)c(OC)c1 [Example 5-15, 4-(N-benzyl-N-(2,4,6-trimethoxybenzyl)sulfamoyl)benzoic acid] | 40 to 60 | 20 to 40 | 20 to 40 | > 80 | – | – | 60 to 80 | 40 to 60 | > 80 | 20 to 40 | – | – | – | – | 60 to 80 | + (20% to 40% inhibition = +) | 20 to 40 | pIC50 (hT2R14 [2]; [3]): 4.97
5 | COc1ccc(CN(Cc2ccccc2)S(=O)(=O)c2ccc(C(=O)O)cc2)c(OC)c1 [Example 5-13, 4-(N-benzyl-N-(2,4-dimethoxybenzyl)sulfamoyl)benzoic acid] | 40 to 60 | 20 to 40 | 20 to 40 | > 80 | ++++ (80% or greater inhibition = ++++) | – | 40 to 60 | 20 to 40 | > 80 | 20 to 40 | +++ (60% to 80% inhibition = +++) | 20 to 40 | +++ (60% to 80% inhibition = +++) | ++++ (80% or greater inhibition = ++++) | 60 to 80 | + (20% to 40% inhibition = +) | 20 to 40 | –
6 | O=C(O)c1ccc(CN(Cc2ccccc2F)S(=O)(=O)c2ccccc2)cc1 [Example 5-103, 4-((N-(2-fluorobenzyl)phenylsulfonamido)methyl)-benzoic acid] | 40 to 60 | 20 to 40 | – | > 80 | ++ (40% to 60% inhibition = ++) | + (20% to 40% inhibition = +) | > 80 | 20 to 40 | > 80 | 20 to 40 | +++ (60% to 80% inhibition = +++) | 20 to 40 | ++ (40% to 60% inhibition = ++) | ++++ (80% or greater inhibition = ++++) | > 80 | ++ (40% to 60% inhibition = ++) | 20 to 40 | pIC50 (hT2R14 [2]; Table C, read-out: hT2R14 IC50): 6.37; inhibition at 25 µM (hT2R4): 40 to 60%; inhibition at 25 µM (hT2R75): 20 to 40%
7 | COc1ccc(CN(Cc2cc(OC)cc(OC)c2)S(=O)(=O)c2ccc(C(=O)O)cc2)cc1 [Example 5-67, 4-(N-(3,5-dimethoxybenzyl)-N-(4-methoxybenzyl)sulfamoyl)benzoic acid] | 40 to 60 | 20 to 40 | 20 to 40 | 40 to 60 | ++++ (80% or greater inhibition = ++++) | + (20% to 40% inhibition = +) | 40 to 60 | 40 to 60 | 60 to 80 | 20 to 40 | ++ (40% to 60% inhibition = ++) | – | ++ (40% to 60% inhibition = ++) | ++++ (80% or greater inhibition = ++++) | 60 to 80 | + (20% to 40% inhibition = +) | – | pIC50 (hT2R14 [2]; Table C, read-out: hT2R14 IC50): 4.92
8 | COc1ccc(CN(Cc2cccc(OC)c2)S(=O)(=O)c2ccc(C(=O)O)cc2)cc1 [Example 5-34, 4-(N-(3-methoxybenzyl)-N-(4-methoxybenzyl)sulfamoyl)-benzoic acid] | 40 to 60 | 40 to 60 | 20 to 40 | > 80 | ++++ (80% or greater inhibition = ++++) | + (20% to 40% inhibition = +) | 60 to 80 | 40 to 60 | > 80 | 20 to 40 | ++ (40% to 60% inhibition = ++) | 20 to 40 | +++ (60% to 80% inhibition = +++) | ++++ (80% or greater inhibition = ++++) | 60 to 80 | ++ (40% to 60% inhibition = ++) | 20 to 40 | pIC50 (hT2R14 [2]; [3]): 5.61
